We go through 14 molecules from ChEMBL document CHEMBL1833853, “Synthesis and in-vitro anticancer activity of 3,5-bis(indolyl)-1,2,4-thiadiazoles” (Bioorg Med Chem Lett, 2011).

SMILES strings stand for the structures.

Type in all cases: functional, cell-based
For one experiment, the system named is MDA-MB-231. The experiment is described as follows: Cytotoxicity against human MDA-MB-231 cells.
Another experiment concerns MCF7. The experiment is described as follows: Cytotoxicity against human MCF7 cells.
A further experiment relates to LNCaP. The experiment is described as follows: Cytotoxicity against human LNCAP cells.
The test system of another experiment is MIA PaCa-2. The experiment is described as follows: Cytotoxicity against human MIAPaCa2 cells.
For the next experiment, the system named is PC-3. The experiment is described as follows: Cytotoxicity against human PC3 cells.
In the next experiment the test system is DU-145. The experiment is described as follows: Cytotoxicity against human DU145 cells.

One may read the IC50 as the concentration needed to halve the response being measured. Read a high IC50 as weaker potency in that assay. Consider `c1ccc2c(-c3nsc(-c4c[nH]c5ccccc45)n3)c[nH]c2c1`, for which the IC50 was 702 µM with MDA-MB-231; 143 µM with MCF7; more than 1000 µM in the experiment with LNCaP; more than 1000 µM in the experiment with MIA PaCa-2; more than 1000 µM with PC-3; 248 µM in the experiment on DU-145.

`Cn1cc(-c2nsc(-c3cn(C)c4ccccc34)n2)c2ccccc21`: the 50% inhibitory concentration (IC50) is 236 µM in the experiment on MDA-MB-231; 177 µM with MCF7; 226 µM with LNCaP; 185 µM in the experiment on MIA PaCa-2; 92.3 µM in the experiment on PC-3; 64 µM in the experiment on DU-145.

With `Clc1ccc(Cn2cc(-c3nsc(-c4cn(Cc5ccc(Cl)cc5)c5ccccc45)n3)c3ccccc32)cc1`, the IC50 in the experiment with MDA-MB-231 was more than 1000 µM; with MCF7, more than 1000 µM; in the experiment on LNCaP, 413 µM; in the experiment on MIA PaCa-2 it was 101 µM; in the experiment on PC-3, more than 1000 µM; with DU-145 it was more than 1000 µM.

As to `Brc1ccc2[nH]cc(-c3nsc(-c4c[nH]c5ccc(Br)cc45)n3)c2c1`, the IC50 in the experiment on MDA-MB-231 came out at 100 µM; in the experiment on MCF7, 31.3 µM; in the experiment with LNCaP, 159 µM; in the experiment with MIA PaCa-2 it was 124 µM; with PC-3 it was 162 µM; with DU-145, 56.7 µM.

In the case of `Cn1cc(-c2nsc(-c3cn(C)c4ccc(Br)cc34)n2)c2cc(Br)ccc21`, the IC50 in the experiment with MDA-MB-231 was more than 1000 µM; in the experiment with MCF7 it was 63.6 µM; with LNCaP, more than 1000 µM; in the experiment on MIA PaCa-2, more than 1000 µM; in the experiment with PC-3, more than 1000 µM; in the experiment on DU-145 it was more than 1000 µM.

For `COc1ccc2[nH]cc(-c3nsc(-c4c[nH]c5ccc(OC)cc45)n3)c2c1`, the IC50 was more than 1000 µM in the experiment with MDA-MB-231; 424 µM in the experiment on MCF7; 295 µM in the experiment on LNCaP; 45.8 µM in the experiment with MIA PaCa-2; 224 µM with PC-3; 206 µM in the experiment on DU-145.

As to `COc1ccc2c(c1)c(-c1nsc(-c3cn(C)c4ccc(OC)cc34)n1)cn2C`, the concentration for half-maximal inhibition (IC50) in the experiment on MDA-MB-231 was found to be 95.7 µM; in the experiment with MCF7 it was 79.9 µM; in the experiment with LNCaP it was 111 µM; with MIA PaCa-2, 177 µM; in the experiment on PC-3, 270 µM; in the experiment on DU-145, 137 µM.

As for `COc1ccc2c(c1)c(-c1nsc(-c3cn(Cc4ccc(Cl)cc4)c4ccc(OC)cc34)n1)cn2Cc1ccc(Cl)cc1`, the IC50 in the experiment on MDA-MB-231 was 67.9 µM; in the experiment on MCF7 it was 32.1 µM; in the experiment on LNCaP, 14.6 µM; in the experiment on MIA PaCa-2, 21.2 µM; in the experiment on PC-3, 21.4 µM; with DU-145, 370 µM.

With `O=[N+]([O-])c1ccc2[nH]cc(-c3nsc(-c4c[nH]c5ccc([N+](=O)[O-])cc45)n3)c2c1`, the half-maximal inhibitory concentration (IC50) with MDA-MB-231 was found to be 98.6 µM; in the experiment with MCF7, 83.5 µM; with LNCaP it was 177 µM; in the experiment on MIA PaCa-2, 187 µM; with PC-3, 680 µM; in the experiment on DU-145, 325 µM.

`Brc1ccc2c(-c3nsc(-c4c[nH]c5cc(Br)ccc45)n3)c[nH]c2c1`: the IC50 in the experiment with MDA-MB-231 stood at 38.3 µM; in the experiment with MCF7, 39.2 µM; in the experiment on LNCaP, 80.1 µM; in the experiment with MIA PaCa-2, 83 µM; with PC-3, 132 µM; with DU-145, 30.2 µM.

As to `COc1ccc2c(-c3nsc(-c4c[nH]c5cc(OC)ccc45)n3)c[nH]c2c1`, the IC50 worked out at 44.3 µM with MDA-MB-231; 35.3 µM in the experiment on MCF7; 35.8 µM in the experiment on LNCaP; 95.3 µM in the experiment with MIA PaCa-2; 76.1 µM with PC-3; 42.3 µM in the experiment on DU-145.

As for `c1ccc2[nH]c(-c3nsc(-c4cc5ccccc5[nH]4)n3)cc2c1`, the IC50 is more than 1000 µM in the experiment with MDA-MB-231; 162 µM with MCF7; 247 µM with LNCaP; 102 µM in the experiment with MIA PaCa-2; 326 µM with PC-3; 453 µM in the experiment with DU-145.

Regarding `Cn1c(-c2nsc(-c3cc4ccccc4n3C)n2)cc2ccccc21`, the IC50 was more than 1000 µM in the experiment on MDA-MB-231; 66.4 µM in the experiment with MCF7; 207 µM with LNCaP; 260 µM in the experiment with MIA PaCa-2; 432 µM with PC-3; more than 1000 µM with DU-145.

Turning to `c1ccc2c(Cc3nsc(Cc4c[nH]c5ccccc45)n3)c[nH]c2c1`, the IC50 in the experiment with MDA-MB-231 was 65 µM; in the experiment on MCF7, 40.5 µM; in the experiment with LNCaP it was 43.3 µM; in the experiment with MIA PaCa-2, 31.3 µM; with PC-3, 44.2 µM; with DU-145 it was 51.2 µM.
